# Test results as given in patent US4332820A, “Substituted benzonitriles having antiviral activity” (The Dow Chemical Company, priority 1980, dated 1982).
# Key:
# rhinovirus type 2 (RV-2) = experiment: Tissue culture antiviral testing, RV-2 (cytopathic effect, HeLa cells); type: cell-based; details: for EC50: Enterovirus, HeLa cells, NA = not active at the standard test conditions, read-out: Lowest concentration of the compound necessary to cause a 50 percent reduction in cytopathic effect
# [1] = Cytotoxicity in tissue culture (HeLa monolayers); type: cell-based; details: human; HeLa cells; observed at 48 and 72 hours post-treatment; read-out: Cytotoxicity (concentration of the compound found to be toxic to the cell)
# rhinovirus type 5 (RV-5) = experiment: Tissue culture antiviral testing, RV-5 (cytopathic effect, HeLa cells); type: cell-based; details: for EC50: Enterovirus, HeLa cells, read-out: Lowest concentration of the compound necessary to cause a 50 percent reduction in cytopathic effect
# [2] = tested on: rhinovirus type 64 (RV-64); experiment: Tissue culture antiviral testing, RV-64 (cytopathic effect, HeLa cells); type: cell-based; details: for EC50: Enterovirus, HeLa cells, NA = not active at the standard test conditions, read-out: Lowest concentration of the compound necessary to cause a 50 percent reduction in cytopathic effect
# [3] = tested on: rhinovirus type 1A (RV-1A); experiment: Tissue culture antiviral testing, RV-1A (cytopathic effect, HeLa cells); type: cell-based; details: for EC50: Enterovirus, HeLa cells, NA = not active at the standard test conditions, read-out: Lowest concentration of the compound necessary to cause a 50 percent reduction in cytopathic effect
# [4] = tested on: Coxsackie A21 virus (Cox A21); experiment: Tissue culture antiviral testing, Cox A21 (cytopathic effect, HeLa cells); type: cell-based; details: for EC50: HeLa cells, NA = not active at the standard test conditions, read-out: Lowest concentration of the compound necessary to cause a 50 percent reduction in cytopathic effect
# rhinovirus type 8 (RV-8) = experiment: Tissue culture antiviral testing, RV-8 (cytopathic effect, HeLa cells); type: cell-based; details: for EC50: Enterovirus, HeLa cells, read-out: Lowest concentration of the compound necessary to cause a 50 percent reduction in cytopathic effect
# Coxsackie A21 virus = experiment: Continuous Oral Feeding test in mice challenged with Coxsackie A21; type: in vivo; details: for X^2 (Continuous Oral Feeding, chi-square of deaths): 0.06 % in diet, 240 h, 0.06 % strength
# Cox A21 = experiment: Single Oral Dose test in mice challenged with Cox A21; type: in vivo, Swiss male mice; details: po, 600 mg/kg, 3 h
SMILES,EC50 (rhinovirus type 2 (RV-2)) [mg/L],MCC [1] [µg/mL],EC50 (rhinovirus type 5 (RV-5)) [mg/L],EC50 [2] [mg/L],EC50 [3] [mg/L],EC50 [4] [mg/L],EC50 (rhinovirus type 8 (RV-8)) [mg/L],further results
"COc1cccc(Oc2ccc([N+](=O)[O-])cc2C#N)c1 [Example 13, 2-(3-Methoxyphenoxy)-5-nitrobenzonitrile]",≤ 3.12,> 50,6.25,12.5,6.25,< 3.12,3.12,–
"CSc1ccc(Oc2ccc([N+](=O)[O-])cc2C#N)cc1 [Example 6, 2-(4-(Methylthio)phenoxy)-5-nitrobenzonitrile]",≤ 6.25,100,–,–,–,< 6.25,–,"X^2 (Continuous Oral Feeding, chi-square of deaths) (Coxsackie A21 virus): 6.91; X^2 (Single Oral Dose, chi-square of deaths vs virus control) (Cox A21): 0.609"
"N#Cc1cc(Oc2ccc(Cl)c(Cl)c2)ccc1[N+](=O)[O-] [5-(3,4-dichlorophenoxy)-2-nitrobenzonitrile, reference compound]",–,–,–,–,–,–,–,"antiviral activity in the ""Continuous Oral Feeding"" test (Coxsackie A21 virus; in words, 95% confidence level): failed to exhibit antiviral activity; concentration required to produce a 50% reduction in cytopathic effect, compared with 2-(3,4-dichlorophenoxy)-5-nitrobenzonitrile (rhinovirus type 2 (RV-2); in words): higher concentrations; antiviral activity at the test concentrations employed (rhinovirus type 5 (RV-5); in words): not active; antiviral activity at the test concentrations employed ([2]; in words): not active; concentration required to produce a 50% reduction in cytopathic effect, compared with 2-(3,4-dichlorophenoxy)-5-nitrobenzonitrile ([3]; in words): higher concentrations; concentration required to produce a 50% reduction in cytopathic effect, compared with 2-(3,4-dichlorophenoxy)-5-nitrobenzonitrile ([4]; in words): higher concentrations; antiviral activity at the test concentrations employed (rhinovirus type 8 (RV-8); in words): not active"
"CN(C)S(=O)(=O)c1ccc(Oc2ccc([N+](=O)[O-])cc2C#N)cc1 [Example 9, N,N-Dimethyl-4-(2-cyano-4-nitrophenoxy)benzenesulfonamide]",–,> 100,–,–,–,< 6.25,–,"X^2 (Continuous Oral Feeding, chi-square of deaths) (Coxsackie A21 virus): 9.03"
"N#Cc1cc([N+](=O)[O-])ccc1Oc1cc(Cl)cc(Cl)c1Cl [Example 30, 2-(2,3,5-Trichlorophenoxy)-5-nitrobenzonitrile]",2.5,> 20,–,–,2.5,–,–,–
"N#Cc1cc([N+](=O)[O-])ccc1Oc1cccc(Cl)c1Cl [Example 22, 2-(2,3-Dichlorophenoxy)-5-nitrobenzonitrile]",< 3.12,> 50,–,< 3.12,< 3.12,< 3.12,–,–
"N#Cc1cc([N+](=O)[O-])ccc1Oc1ccc(C(=O)c2ccccc2)cc1 [Example 11, 2-(4-Benzoylphenoxy)-5-nitrobenzonitrile]",~100,> 100,–,–,–,12.5,–,"X^2 (Single Oral Dose, chi-square of deaths vs virus control) (Cox A21): 0.64"
"N#Cc1cc([N+](=O)[O-])ccc1Oc1ccc(F)cc1 [Example 21, 2-(4-Fluorophenoxy)-5-nitrobenzonitrile]",< 0.625,10,1.25,0.625,0.625,0.625,0.625,"X^2 (Continuous Oral Feeding, chi-square of deaths) (Coxsackie A21 virus): 10.513"
"N#Cc1cc([N+](=O)[O-])ccc1Oc1cc(Cl)cc(Cl)c1 [Example 25, 2-(3,5-Dichlorophenoxy)-5-nitrobenzonitrile]",3.12,> 50,6.25,25,6.25,–,3.12,–
"Cc1cc(Cl)ccc1Oc1ccc([N+](=O)[O-])cc1C#N [Example 16, 2-(4-Chloro-2-methylphenoxy)-5-nitrobenzonitrile]",3.12,> 50,6.25,–,12.5,12.5,3.12,–
"N#Cc1cc([N+](=O)[O-])ccc1Sc1ccc(Cl)c(Cl)c1 [Example 20, 2-((3,4-Dichlorophenyl)thio)-5-nitrobenzonitrile]",2.5,10,–,–,–,~2.5,–,–
"N#Cc1cc([N+](=O)[O-])ccc1Oc1ccc(Cl)c(Cl)c1Cl [Example 29, 2-(2,3,4-Trichlorophenoxy)-5-nitrobenzonitrile]",1.25,> 20,–,–,~10,~5,–,–
"N#Cc1cc([N+](=O)[O-])ccc1Oc1c(F)c(F)cc(F)c1F [Example 18, 2-(2,3,5,6-Tetrafluorophenoxy)-5-nitrobenzonitrile]",< 3.12,12.5,1.25,0.312,3.12,3.12,1.25,–
"N#Cc1cc([N+](=O)[O-])ccc1Oc1cc(C(F)(F)F)cc(C(F)(F)F)c1 [Example 28, 2-(3,5-bis(Trifluoromethyl)phenoxy)-5-nitrobenzonitrile]",2.5,≥ 20,–,–,–,10,–,–
"N#Cc1cc([N+](=O)[O-])ccc1Oc1c(Cl)cccc1Cl [Example 24, 2-(2,6-Dichlorophenoxy)-5-nitrobenzonitrile]",≤ 3.12,> 50,3.12,3.12,3.12,12.5,≤ 3.12,–
"N#Cc1cc([N+](=O)[O-])ccc1Oc1ccc(C(F)(F)F)cc1 [Example 14, 2-((4-Trifluoromethyl)phenoxy)-5-nitrobenzonitrile]",0.312,≥ 50,2.5,0.625,3.12,0.625,0.312,–
"CC(=O)c1ccc(Oc2ccc([N+](=O)[O-])cc2C#N)cc1 [Example 15, 2-(4-Acetylphenoxy)-5-nitrobenzonitrile]",3.12,> 50,6.25,6.25,6.25,< 3.12,3.12,–
"CCN(CC)S(=O)(=O)c1ccc(Oc2ccc([N+](=O)[O-])cc2C#N)cc1 [Example 10, N,N-Diethyl-4-(2-cyano-4-nitrophenoxy)benzenesulfonamide]",–,> 100,–,–,~50,< 6.25,–,"X^2 (Continuous Oral Feeding, chi-square of deaths) (Coxsackie A21 virus): 2.84"
"N#Cc1cc([N+](=O)[O-])ccc1Oc1cc(Cl)ccc1Cl [Example 23, 2-(2,5-Dichlorophenoxy)-5-nitrobenzonitrile]",< 3.12,> 50,≤ 6.25,3.12,3.12,6.25,< 6.25,–
"N#Cc1cc([N+](=O)[O-])ccc1Oc1c(Cl)ccc(Cl)c1Cl [Example 31, 2-(2,3,6-Trichlorophenoxy)-5-nitrobenzonitrile]",1.25,> 20,3.12,3.12,2.5,5,< 3.12,–
"N#Cc1cc([N+](=O)[O-])ccc1Oc1cc(Cl)c(Cl)c(Cl)c1 [Example 17, 2-(3,4,5-Trichlorophenoxy)-5-nitrobenzonitrile]",1.25,10,–,–,2.5,1.25,–,–
"N#Cc1cc([N+](=O)[O-])ccc1Oc1c(F)c(F)c(F)c(F)c1F [Example 19, 2-(2,3,4,5,6-Pentafluorophenoxy)-5-nitrobenzonitrile]",≤ 3.12,12.5,1.25,0.312,6.25,6.25,1.25,–
"N#Cc1cc([N+](=O)[O-])ccc1Oc1cccc(C(F)(F)F)c1 [Example 27, 2-((3-Trifluoromethyl)phenoxy)-5-nitrobenzonitrile]",0.625,12.5,0.625,0.625,2.5,1.25,1.25,–
"N#Cc1cc([N+](=O)[O-])ccc1Oc1ccccc1C(F)(F)F [Example 26, 2-((2-Trifluoromethyl)phenoxy)-5-nitrobenzonitrile]",1.25,≥ 20,–,–,–,10,–,–
